Values of other authors, collected in US7527814B2, “Process for the isolation of calliterpenone” (Council of Scientific and Industrial Research, priority 2006, dated 2009).

What was measured:
plant growth = settings: if used in a particular method
[1] = tested on: growth retardant effects produced by allelochemicals; settings: Singh et al., U.S. Pat. No. 6,673,749 (2004)

CC1(C)C(=O)CC[C@@]2(C)[C@H]1CC[C@@]13C[C@H](CC[C@@H]12)[C@@](O)(CO)C3 [calliterpenone, 16α,17 dihydroxy-3-oxo phyllocladane]
plant growth promoting effect compared with GA3 (plant growth): better plant growth promoting effect than GA3
effect on growth retardant effects produced by allelochemicals [1]: antagonizes the growth retardant effects produced by allelochemicals
